# Test results published in the supplement of paper PMC10307832.
# Legend:
# Assay in all cases: relative viability (nuclei count vs DMSO), 5 days (fraction); higher = more cells survive
# Vemurafenib + Pictilisib = compound: CCCS(=O)(=O)Nc1ccc(F)c(C(=O)c2c[nH]c3ncc(-c4ccc(Cl)cc4)cc23)c1F [Vemurafenib] + CS(=O)(=O)N1CCN(Cc2cc3nc(-c4cccc5[nH]ncc45)nc(N4CCOCC4)c3s2)CC1 [Pictilisib] (partner 1 µM)
# Summary of the method: (§1)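 Relative viability equals treated-well nuclei counts divided by vehicle-well nuclei counts. Counts came from 4× images of lung cancer cell lines grown in 1536-well plates for 5 days after pin-tool dosing on the day after seeding. Dosing used one drug alone or a fixed anchor-drug dose plus five library-drug doses (not always all listed) in √10 steps, and values are medians of duplicate plates.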
# OSI-027 + Trametinib = compound: COc1cccc2cc(-c3nc([C@H]4CC[C@H](C(=O)O)CC4)n4ncnc(N)c34)[nH]c12 [OSI-027] + CC(=O)Nc1cccc(-n2c(=O)n(C3CC3)c(=O)c3c(Nc4ccc(I)cc4F)n(C)c(=O)c(C)c32)c1 [Trametinib] (partner 0.02 µM)
# Summary of the method: as §1
# [1] = compound: CCCS(=O)(=O)Nc1ccc(F)c(C(=O)c2c[nH]c3ncc(-c4ccc(Cl)cc4)cc23)c1F [Vemurafenib] + CC(=O)c1c(C)c2cnc(Nc3ccc(N4CCNCC4)cn3)nc2n(C2CCCC2)c1=O [Palbociclib] (partner 0.5 µM)
# Summary of the method: as §1
# Vemurafenib + Tozasertib = compound: CCCS(=O)(=O)Nc1ccc(F)c(C(=O)c2c[nH]c3ncc(-c4ccc(Cl)cc4)cc23)c1F [Vemurafenib] + Cc1cc(Nc2cc(N3CCN(C)CC3)nc(Sc3ccc(NC(=O)C4CC4)cc3)n2)n[nH]1 [Tozasertib] (partner 0.1 µM)
# Summary of the method: as §1
Cell Line,relative viability (Vemurafenib + Pictilisib; first compound 0.03162 µM),relative viability (Vemurafenib + Pictilisib; first compound 0.1 µM),relative viability (Vemurafenib + Pictilisib; first compound 0.3162 µM),relative viability (Vemurafenib + Pictilisib; first compound 1 µM),relative viability (OSI-027 + Trametinib; first compound 0.01 µM),relative viability (OSI-027 + Trametinib; first compound 0.03162 µM),relative viability (OSI-027 + Trametinib; first compound 0.1 µM),relative viability (OSI-027 + Trametinib; first compound 0.3162 µM),relative viability (OSI-027 + Trametinib; first compound 1 µM),relative viability ([1]; first compound 0.03162 µM),relative viability ([1]; first compound 0.1 µM),relative viability ([1]; first compound 0.3162 µM),relative viability ([1]; first compound 1 µM),relative viability (Vemurafenib + Tozasertib; first compound 0.03162 µM),relative viability (Vemurafenib + Tozasertib; first compound 0.1 µM),relative viability (Vemurafenib + Tozasertib; first compound 1 µM),relative viability (Vemurafenib + Tozasertib; first compound 0.3162 µM)
NCI-H650,0.818,0.834,0.534,0.771,0.915,1.11,0.909,0.851,0.454,0.359,0.288,0.241,0.287,0.696,0.703,0.614,
NCI-H661,0.347,0.351,0.292,0.433,0.545,0.479,0.468,0.432,0.307,0.406,0.357,0.454,0.403,0.325,0.334,0.358,0.396
NCI-H727,0.353,0.32,0.568,0.315,0.346,0.412,0.349,0.387,0.395,0.699,0.631,0.811,0.661,0.506,0.584,0.775,0.808
NCI-H838,0.401,0.445,,0.626,0.455,0.532,0.436,0.317,0.206,0.213,0.236,0.177,0.343,0.233,0.293,0.285,
NCI-H1355,0.419,0.426,0.377,0.395,0.401,0.458,0.341,0.3,0.252,0.384,0.325,0.436,0.45,0.545,0.559,0.435,0.56
NCI-H1395,0.672,0.613,,0.521,1.1,1.02,0.957,0.863,0.648,0.553,0.613,0.523,0.611,0.722,0.815,0.779,
NCI-H1437,0.445,0.376,0.512,0.333,0.43,0.406,0.493,0.39,0.248,0.311,0.307,0.311,0.346,0.404,0.381,0.363,0.396
NCI-H1650,0.487,,0.581,0.601,0.485,0.504,0.614,0.6,0.408,0.314,0.255,0.356,0.351,,0.277,0.272,
NCI-H1651,0.523,0.6,0.665,0.527,0.829,0.736,0.838,0.805,0.607,0.511,0.463,0.488,0.53,0.605,0.594,0.57,0.636
NCI-H1666,0.387,,0.482,0.331,0.865,0.848,0.843,0.765,0.692,0.579,0.699,0.665,0.641,0.575,0.549,0.579,0.801
NCI-H1734,0.452,0.545,0.432,0.367,0.667,0.687,0.659,0.586,0.42,0.344,0.335,0.343,0.317,0.269,0.246,0.269,0.281
NCI-H1755,0.342,0.347,0.314,0.381,0.738,0.759,0.761,0.654,0.501,0.459,0.43,0.431,0.434,0.516,0.562,0.53,0.555
NCI-H1793,0.442,,0.477,0.379,0.489,0.431,0.35,0.344,0.21,0.287,0.226,0.303,0.344,0.288,,0.264,0.323
NCI-H1915,0.751,0.903,0.908,0.85,0.284,0.299,0.262,0.233,0.314,0.526,0.496,0.554,0.487,0.436,0.439,0.342,0.411
NCI-H1944,0.318,0.326,0.331,0.307,0.379,0.399,0.405,0.355,0.298,0.332,,0.313,0.385,0.268,0.201,0.256,0.274
NCI-H1975,0.279,0.278,0.232,0.332,0.278,0.386,0.3,0.294,0.264,0.553,0.471,0.41,0.382,0.688,0.635,0.238,0.45
NCI-H1993,0.767,,0.801,0.831,0.474,0.548,0.523,0.412,0.505,0.63,,0.703,0.54,0.473,,0.571,0.569

Cell Line,relative viability (Vemurafenib + Pictilisib; first compound 0.03162 µM),relative viability (Vemurafenib + Pictilisib; first compound 0.1 µM),relative viability (Vemurafenib + Pictilisib; first compound 0.3162 µM),relative viability (Vemurafenib + Pictilisib; first compound 1 µM),relative viability (OSI-027 + Trametinib; first compound 0.01 µM),relative viability (OSI-027 + Trametinib; first compound 0.03162 µM),relative viability (OSI-027 + Trametinib; first compound 0.1 µM),relative viability (OSI-027 + Trametinib; first compound 0.3162 µM),relative viability (OSI-027 + Trametinib; first compound 1 µM),relative viability ([1]; first compound 0.03162 µM),relative viability ([1]; first compound 0.1 µM),relative viability ([1]; first compound 0.3162 µM),relative viability ([1]; first compound 1 µM),relative viability (Vemurafenib + Tozasertib; first compound 0.03162 µM),relative viability (Vemurafenib + Tozasertib; first compound 0.1 µM),relative viability (Vemurafenib + Tozasertib; first compound 1 µM),relative viability (Vemurafenib + Tozasertib; first compound 0.3162 µM)
NCI-H2009,0.829,0.858,0.605,0.572,0.272,0.283,0.2,0.196,0.195,0.175,0.172,0.161,0.199,0.698,0.644,0.648,0.625
NCI-H2023,0.218,0.222,0.302,0.225,0.645,0.506,0.435,0.388,0.272,0.332,0.33,0.39,0.38,0.335,0.241,0.18,0.273
NCI-H2085,0.421,0.458,0.664,0.416,0.504,0.514,0.429,0.313,0.281,0.422,0.451,0.416,0.509,0.754,0.727,0.508,0.802
NCI-H2087,0.728,0.816,,0.802,0.194,0.235,0.194,0.154,0.142,0.204,0.222,0.266,0.275,0.249,0.236,0.132,
NCI-H2126,0.494,0.4,0.572,0.471,0.54,0.593,0.526,0.447,0.537,0.328,0.354,0.344,0.333,0.812,0.786,0.809,
NCI-H2170,0.305,0.157,0.254,0.293,1.02,0.901,0.807,0.746,0.267,0.403,,0.396,0.344,0.637,0.617,0.679,0.751
NCI-H2228,0.32,0.362,0.684,0.358,0.409,0.499,0.507,0.326,0.284,0.698,0.772,0.88,0.414,0.228,0.234,0.21,0.244
NCI-H2347,0.328,0.659,0.754,0.667,0.29,0.25,0.268,0.278,0.205,0.427,0.429,0.44,0.498,0.452,0.53,0.482,0.507
NCI-H2405,0.347,0.467,,0.48,0.643,0.663,0.597,0.471,0.373,0.493,0.536,,0.58,0.756,0.708,0.717,
NCI-H3122,0.596,0.596,0.798,0.69,0.273,0.238,0.178,0.191,0.097,0.177,0.172,0.206,0.178,0.398,0.335,0.365,0.371
PC-3 [JPC-3],0.649,,0.857,0.82,0.616,0.651,0.599,0.603,0.437,,,0.485,0.565,0.853,,0.881,0.904
PC-14,0.584,,0.805,0.696,0.793,0.934,0.71,0.649,0.282,0.449,,0.504,0.537,0.557,,0.551,0.376
RERF-LC-KJ,0.838,0.464,0.707,0.597,0.709,0.832,0.815,0.667,0.406,1.03,0.968,1.07,1.11,0.486,0.487,0.397,0.415
SK-LU-1,0.545,0.567,,0.532,0.458,0.491,0.457,0.334,0.327,0.388,0.377,0.368,0.337,0.255,0.283,0.298,0.294
SK-MES-1,0.322,0.192,0.354,0.347,0.531,0.523,0.478,0.483,0.394,0.314,,0.314,0.318,0.831,0.915,0.751,0.829
SW 1573,0.475,0.511,0.585,0.52,0.711,0.543,0.491,0.409,0.411,0.203,0.435,0.382,0.383,0.162,0.192,0.26,0.193
